Results from patent US8017612B2, “Piperazine compound and use thereof as a HCV polymerase inhibitor” (priority 2006, dated 2011).

Assays:
[1] = biological target: T1, HCV polymerase (NS5B) type 1a (Hepatitis C virus genotype 1a, UniProt P26664); experiment: Assay of enzyme (HCV polymerase) inhibitory activity, type 1a enzyme; format: biochemical, HCV type 1a (cloned from the blood of patients)
T1 construct: made in house; host or cells: Escherichia coli (by the 'similar method' of the 1b enzyme)
How it was run: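 His-tagged NS5B, C-terminal 47 residues deleted, type 1a at 1.5 μg/ml, with 5 μg/ml HCV 3′UTR substrate RNA, 50 μM ATP/GTP/CTP, 2 μM UTP plus [3H]UTP, pH 7.5 Tris, 5 mM MgCl2; 60 min at 25° C. TCA-precipitated RNA counted by scintillation; IC50 from radioactivity with vs. without compound.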

[2] = biological target: T2, HCV polymerase (NS5B) type 1b (Hepatitis C virus genotype 1b, UniProt P26663); experiment: Assay of enzyme (HCV polymerase) inhibitory activity, type 1b enzyme; format: biochemical, HCV BK strain (type 1b)
T2 construct: a region encoding NS5B (J Virol 1991 March, 65(3), 1105-13, 544 amino acids after deletion of 47 amino acids on the C-terminal); 6xHis (C); made in house; host or cells: Escherichia coli
How it was run: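 His-tagged, C-terminally truncated NS5B (BK strain, 1b; 0.5 μg/ml) incubated with compound 60 min at 25 °C on 3′UTR-derived substrate RNA (5 μg/ml), 50 μM ATP/GTP/CTP, 2 μM UTP plus [3H]UTP, pH 7.5. Acid-precipitated RNA counted; IC50 from radioactivity with and without compound.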

[3] = HCV polymerase inhibitory activity IC50, 1a, type 1a enzyme
[4] = HCV polymerase inhibitory activity IC50, 1b, type 1b enzyme
[5] = HCV polymerase inhibitory activity (IC50), 1a, type 1a enzyme 1.5 μg/ml, 25° C., 60 min
[6] = HCV polymerase inhibitory activity (IC50), 1b, type 1b enzyme 0.5 μg/ml, 25° C., 60 min

SMILES	IC50 [1, 3] [nM]	IC50 [2, 4] [nM]	IC50 [1, 5] [nM]	IC50 [2, 6] [nM]
CCC(F)(F)c1ccc(CNC(=O)[C@H]2CN(C(=O)CC(=O)O)CCN2S(=O)(=O)c2ccc(OC(F)(F)F)cc2)cc1 [Example 678, 3-[(R)-3-[4-(1,1-difluoro-propyl)-benzylcarbamoyl]-4-(4-trifluoromethoxy-benzenesulfonyl)-piperazin-1-yl]-3-oxo-propionic acid]	> 1000	> 1000		
CC(C)c1ccc(CNC(=O)[C@H]2CN(C(=O)Nc3nnco3)CCN2S(=O)(=O)c2ccc(C(F)(F)F)cc2)cc1 [Example 348, (R)-4-(4-trifluoromethyl-benzenesulfonyl)-piperazine-1,3-dicarboxylic acid 3-(4-isopropyl-benzylamide) 1-[1,3,4]oxadiazol-2-ylamide]			100 to 1000	100 to 1000
CC(=O)N1CCN(S(=O)(=O)c2ccc(C(C)C)cc2)C(C(=O)NCc2ccc(N3CCN(C)CC3)cc2)C1 (stereo not shown) [Example 81, 4-acetyl-1-(4-isopropyl-benzenesulfonyl)-piperazine-2-carboxylic acid 4-(4-methyl-piperazin-1-yl)-benzylamide]			> 1000	> 1000
CC(=O)N1CCN(S(=O)(=O)c2ccc(C(C)C)cc2)C(C(=O)NCCc2c[nH]c3ccccc23)C1 (stereo not shown) [Example 79, 4-acetyl-1-(4-isopropyl-benzenesulfonyl)-piperazine-2-carboxylic acid [2-(1H-indol-3-yl)-ethyl]-amide]			> 1000	> 1000
CCCc1ccc(CNC(=O)[C@H]2CN(c3cnc(C(=O)O)cn3)CCN2S(=O)(=O)c2ccc(CCC)s2)cc1 [Example 438, (R)-3-(4-propyl-benzylcarbamoyl)-4-(5-propyl-thiophene-2-sulfonyl)-3,4,5,6-tetrahydro-2H-[1,2′]bipyrazinyl-5′-carboxylic acid]			< 100	< 100
Cc1ncc2sc(N3CCN(S(=O)(=O)c4ccc(OC(F)(F)F)cc4)[C@@H](C(=O)NCc4ccc(OC(F)(F)F)cc4)C3)nc2n1 [Example 908, (R)-4-(5-methyl-thiazolo[4,5-d]pyrimidin-2-yl)-1-(4-trifluoromethoxy-benzenesulfonyl)-piperazine-2-carboxylic acid 4-trifluoromethoxy-benzylamide]	< 100	< 100		
O=C(NCc1ccc(OC(F)(F)F)cc1)[C@H]1CN(c2nc3nc(C(F)(F)F)ncc3s2)CCN1S(=O)(=O)c1ccc(OC(F)(F)F)cc1 [Example 961, (R)-1-(4-trifluoromethoxy-benzenesulfonyl)-4-(5-trifluoromethyl-thiazolo[4,5-d]pyrimidin-2-yl)-piperazine-2-carboxylic acid 4-trifluoromethoxy-benzylamide]	< 100	< 100		
CCC(F)(F)c1ccc(CNC(=O)[C@H]2CN(c3cnc4ccc(Br)cc4n3)CCN2S(=O)(=O)c2ccc(OC(F)(F)F)cc2)cc1 [Example 685, (R)-4-(7-bromo-quinoxalin-2-yl)-1-(4-trifluoromethoxy-benzenesulfonyl)-piperazine-2-carboxylic acid 4-(1,1-difluoro-propyl)-benzylamide]	100 to 1000	100 to 1000		
CCC(F)(F)c1ccc(CNC(=O)[C@H]2CN(c3cnc4cccnc4n3)CCN2S(=O)(=O)c2ccc(OC(F)(F)F)cc2)cc1 [Example 760, (R)-4-pyrido[2,3-b]pyrazin-3-yl-1-(4-trifluoromethoxy-benzenesulfonyl)-piperazine-2-carboxylic acid 4-(1,1-difluoro-propyl)-benzylamide]	< 100	< 100		
Cc1ncc2ncc(N3CCN(S(=O)(=O)c4ccc(OC(F)(F)F)cc4)[C@@H](C(=O)NCc4ccc(OC(F)(F)F)cc4)C3)nc2n1 [Example 767, (R)-4-(2-methyl-pteridin-7-yl)-1-(4-trifluoromethoxy-benzenesulfonyl)-piperazine-2-carboxylic acid 4-trifluoromethoxy-benzylamide]	< 100	< 100		
CC(=O)N1CCN(S(=O)(=O)c2ccc(C(C)C)cc2)[C@@H](C(=O)NCCc2cccnc2)C1 [Example 397, (R)-4-acetyl-1-(4-isopropyl-benzenesulfonyl)-piperazine-2-carboxylic acid (2-pyridin-3-yl-ethyl)-amide]			> 1000	> 1000
CCOC(=O)c1cnc(N2CCN(S(=O)(=O)c3ccc(C(F)(F)F)cc3)[C@@H](C(=O)NCc3ccc(C(C)C)cc3)C2)nc1O [Example 325, 4-hydroxy-2-[(R)-3-(4-isopropyl-benzylcarbamoyl)-4-(4-trifluoromethyl-benzenesulfonyl)-piperazin-1-yl]-pyrimidine-5-carboxylic acid ethyl ester]			> 1000	100 to 1000
O=C(NCc1ccc(OC(F)(F)F)cc1)[C@H]1CN(c2nc3nc(C(F)(F)F)ncc3s2)CCN1S(=O)(=O)c1ccc(OC(F)(F)C(F)F)cc1 [Example 1004, (R)-1-[4-(1,1,2,2-tetrafluoro-ethoxy)-benzenesulfonyl]-4-(5-trifluoromethyl-thiazolo[4,5-d]pyrimidin-2-yl)-piperazine-2-carboxylic acid 4-trifluoromethoxy-benzylamide]	< 100	< 100		
CCC(F)(F)c1ccc(CNC(=O)[C@H]2CN(c3nc4c(=O)[nH]ncc4s3)CCN2S(=O)(=O)c2ccc(OC(F)(F)F)cc2)cc1 [Example 664, (R)-4-(4-oxo-4,5-dihydro-thiazolo[4,5-d]pyridazin-2-yl)-1-(4-trifluoromethoxy-benzenesulfonyl)-piperazine-2-carboxylic acid 4-(1,1-difluoro-propyl)-benzylamide]	< 100	< 100		
O=C(NCc1ccc(OCC(F)(F)F)cc1)[C@H]1CN(c2cnc3cncnc3n2)CCN1S(=O)(=O)c1ccc(OC(F)(F)F)cc1 [Example 763, (R)-4-pteridin-7-yl-1-(4-trifluoromethoxy-benzenesulfonyl)-piperazine-2-carboxylic acid 4-(2,2,2-trifluoro-ethoxy)-benzylamide]	< 100	< 100		
CCCc1ccc(CNC(=O)[C@H]2CN(c3nc(C)c(S(=O)(=O)NC(C)=O)s3)CCN2S(=O)(=O)c2ccc(OC(F)(F)F)cc2)cc1 [Example 832, (R)-4-(5-acetylsulfamoyl-4-methyl-thiazol-2-yl)-1-(4-trifluoromethoxy-benzenesulfonyl)-piperazine-2-carboxylic acid 4-propyl-benzylamide]	< 100	< 100		
CN(C)C(=O)c1nncc2sc(N3CCN(S(=O)(=O)c4ccc(OC(F)(F)F)cc4)[C@@H](C(=O)NCc4ccc(OC(F)(F)F)cc4)C3)nc12 [Example 930, 2-[(R)-4-(4-trifluoromethoxy-benzenesulfonyl)-3-(4-trifluoromethoxy-benzylcarbamoyl)-piperazin-1-yl]-thiazolo[4,5-d]pyridazine-4-carboxylic acid dimethylamide]	< 100	< 100		
CC(C)c1ccc(CNC(=O)[C@H]2CN(CCc3ccncc3)CCN2S(=O)(=O)c2ccc(C(F)(F)F)cc2)cc1 [Example 304, (R)-4-(2-pyridin-4-yl-ethyl)-1-(4-trifluoromethyl-benzenesulfonyl)-piperazine-2-carboxylic acid 4-isopropyl-benzylamide]			100 to 1000	100 to 1000
CCCc1ccc(CNC(=O)[C@H]2CN(c3nc4cn[nH]c(=O)c4s3)CCN2S(=O)(=O)c2ccc(OC(F)(F)F)cc2)cc1 [Example 819, (R)-4-(7-oxo-6,7-dihydro-thiazolo[4,5-d]pyridazin-2-yl)-1-(4-trifluoromethoxy-benzenesulfonyl)-piperazine-2-carboxylic acid 4-propyl-benzylamide]	< 100	< 100		
CCC(F)(F)c1ccc(CNC(=O)[C@H]2CN(c3cnc4cc(Br)ccc4n3)CCN2S(=O)(=O)c2ccc(OC(F)(F)F)cc2)cc1 [Example 684, (R)-4-(6-bromo-quinoxalin-2-yl)-1-(4-trifluoromethoxy-benzenesulfonyl)-piperazine-2-carboxylic acid 4-(1,1-difluoro-propyl)-benzylamide]	100 to 1000	100 to 1000		
CC(=O)N1CCN(S(=O)(=O)c2ccccc2Cl)C(C(=O)NCc2ccc(C(F)(F)F)cc2)C1 (stereo not shown) [Example 21, 4-acetyl-1-(2-chloro-benzenesulfonyl)-piperazine-2-carboxylic acid 4-trifluoromethyl-benzylamide]			> 1000	> 1000
COCc1ccc(S(=O)(=O)N2CCN(C(C)=O)CC2C(=O)NCc2ccc(C(F)(F)F)cc2)cc1 (stereo not shown) [Example 143, 4-acetyl-1-(4-methoxymethyl-benzenesulfonyl)-piperazine-2-carboxylic acid 4-trifluoromethyl-benzylamide]			> 1000	> 1000
CC(C)(C)c1ccc(CNC(=O)[C@H]2CN(c3ncc(CO)s3)CCN2S(=O)(=O)c2ccc(OC(F)(F)F)cc2)cc1 [Example 570, (R)-4-(5-hydroxymethyl-thiazol-2-yl)-1-(4-trifluoromethoxy-benzenesulfonyl)-piperazine-2-carboxylic acid 4-tert-butyl-benzylamide]			< 100	< 100
